SMILES strings stand for the structures. “Also recorded” adds a separate entry of the source. Like-named read-outs stand apart in the source and are kept apart here.

Data set [1] relates to Ca9-22 cells (OSCC, gingival tissue). Put plainly: MTT cytotoxicity assay, Ca9-22. It counts as cell-based, human. Conditions: for TS (C/A) tumor-selectivity index: CC50 HGF / CC50 Ca9-22 (both gingival); for PSE (C/A^2)x100 potency-selectivity expression: HGF vs Ca9-22 (both gingival); for CC50: OSCC, 48 h, MTT, average of three determinations. (Formazan colour is commonly taken as a measure of viable cells.)
Procedure: (§2) The viable cell number was determined in triplicate by the MTT method, following the approach adopted in previous studies ([Nagai et al., 2018]; [Shi et al., 2018] ). Briefly, the cells were incubated for 2 h with 0.2 mg/mL of MTT, and the formed formazan was dissolved with 0.1 mL of DMSO to determine the relative viable cell number at 560 nm.
(§3) Cells were inoculated at 2×10^3 cells/0.1 ml in a 96-microwell plate. […] Cells were incubated further for 48 h and the relative viable cell number was then determined by the MTT method and expressed as the absorbance of the cell lysate at 560 nm, using a microplate reader (Infinite F50R; TECAN, Männedorf, Switzerland) [49, 50]. Control cells were treated with the same amounts of DMSO and the cell damage induced by DMSO was subtracted from that induced by test agents. The concentration of compound that reduced the viable cell number by 50% (CC50) was determined from the dose–response curve and the mean value of CC50 for each cell type was calculated from triplicate assays.
(§4) Human oral squamous cell carcinoma (OSCC) cell lines [Ca9-22 (derived from gingival tissue); and HSC-2, HSC-3, HSC-4 (derived from tongue)] were purchased from Riken Cell Bank (Tsukuba, Japan). All of these cells were cultured at 37°C in DMEM supplemented with 10% heat-inactivated fetal bovine serum, 100 units/ml, penicillin G and 100 µg/ml streptomycin sulfate under a humidified 5% CO2 atmosphere. Cell morphology was checked periodically under a light microscope (EVOS FL; Thermo Fisher Scientific, Waltham, MA, USA).

For data set [2], the system named is HSC-3 cells (OSCC, tongue). The experiment in a line: MTT cytotoxicity assay, HSC-3. It counts as cell-based, human. Conditions: for CC50: OSCC, 48 h, MTT, average of three determinations; for increase of cytotoxicity against HSC-3 compared to MS4: relative to unsubstituted phenyl derivative MS4.
Procedure: as §2, §3, §4
For data set [3], the system named is HSC-4 cells (OSCC, tongue). The experiment in a line: MTT cytotoxicity assay, HSC-4. Conditions: average of three determinations. It is filed as cell-based, human.
Procedure: as §2, §3, §4
A short description of data set [4]: MTT cytotoxicity assay, HGF. Particulars: human, human gingival fibroblasts (HGF), normal oral cells, average of three determinations. It is filed as cell-based, human.
Procedure: as §2, §3, §4
Data set [5] is described as follows: MTT cytotoxicity assay, HPLF. It counts as cell-based, human. Particulars: female, human, normal oral cells, average of three determinations.
Procedure: as §2, §3
(§5) All of these cells were cultured at 37°C in DMEM supplemented with 10% heat-inactivated fetal bovine serum, 100 units/ml, penicillin G and 100 µg/ml streptomycin sulfate under a humidified 5% CO2 atmosphere.
Data set [6] can be described thus: MTT cytotoxicity assay, HPC. It counts as cell-based, human. Particulars: female, human, human pulp cells (HPC), normal oral cells, average of three determinations.
Procedure: as §2, §3, §5
The test system of data set [7] is human OSCC cell lines (Ca9-22, HSC-2, HSC-3, HSC-4). Put plainly: MTT cytotoxicity, four OSCC cell lines together (mean, TS, PSE, type of growth inhibition). Conditions: for CC50: mean of Ca9-22, HSC-2, HSC-3, HSC-4, read-out: CC50 OSCC mean (B); for type of growth inhibition on the OSCC cell lines: from dose-response curves, Figure 4, cytostatic = without complete cytotoxicity, cytotoxic = complete cell death; for TS (D/B) tumor-selectivity index: mean CC50 normal cells / mean CC50 OSCC cell lines; for PSE (D/B^2)x100 potency-selectivity expression: three normal cell types vs four OSCC cell lines. It counts as cell-based. The procedure:
TS was calculated using the following equation: TS=mean CC50 against three normal oral cell types/mean CC50 against four OSCC cell lines (HGF, HPLF, HPC vs. Ca9-22, HSC-2, HSC-3, HSC-4). Since both Ca9-22 and HGF cells were derived from the gingival tissue, the relative sensitivity of these cells was also compared (as: CC50 against HGF/ CC50 against Ca9-22).
PSE was calculated by the following equation: PSE=mean CC50 against three normal oral cell types/(CC50 against four OSCC cell lines)2 × 100 (HGF, HPLF, HPC vs. Ca9-22, HSC-2, HSC-3, HSC-4); and as CC50 against HGF/(CC50 against Ca9-22)2 × 100 using the pair of cell types from the same tissue (gingiva) (see Table 1).
(§1) Estimation of CC50 values. […] The mean pCC50 values for normal cells and tumor cell lines were defined as N and T, respectively.

A short description of data set [8]: MTT cytotoxicity, three normal oral cell types together (mean). It counts as cell-based, human. Particulars: female, human; mean of HGF, HPLF, HPC; read-out: CC50 normal oral cells mean (D).
From the text: as §1

A further data set concerns HSC-2 cells. Put plainly: Cell-cycle analysis (propidium iodide, cell sorting). It counts as cell-based, human. Conditions: HSC-2, 24 h; for subG1 cell population: control 1.9 %; for share of S-phase cells: control 15.6%; for share of G2+M phase cells: control 20.5%. As for the experimental part:
Cell-cycle analysis was performed following the process described in the literature ([Kantoh et al., 2010]; [Nagai et al., 2018]; [Shi et al., 2018]), details of which are presented in a supplementary file. Briefly, cells (approximately 10^6 in number) were fixed with paraformaldehyde in PBS(−) and treated with RNase A. After staining with propidium iodide in the presence of 0.01% Nonidet-40 to prevent cell aggregation, the cells were filtered through Falcon cell strainers and then subjected to cell sorting, analyzed with Cell Sorter Software (version 2.1.2) (SONY Imaging Products and Solution Inc., Kanagawa, Japan).
HSC-2 cells were incubated for 24 h with actinomycin D (Act.D) (positive control of apoptosis induction) or MS4, 7, or 8, or without treatment (control), and subjected to cell cycle analysis. […] D (1 μM) (p < 0.05) from 1.9 % to 12.5%. […] The cell cycle analysis was performed only with HSC-2 cells; therefore, experiments with other OSCC cell lines should be conducted to support the generalization of our findings.
Treated and untreated cells (approximately 10^6 cells) were harvested, fixed with 1% paraformaldehyde in PBS without calcium and magnesium ions [PBS(−)]. Fixed cells were then washed twice with PBS(−) and treated for 30 min with 400 μl of 0.2 mg/ml RNase A (preheated for 10 min at 100 °C to inactivate DNase) to degrade RNA. Cells were then washed twice with PBS(−) and stained for 15 min with 0.01% propidium iodide (PI) in the presence of 0.01% NP-40 in PBS(−) to prevent cell aggregation. After filtering through Falcon® cell strainers ([…]) (Corning, NY, USA) to remove aggregated cells, PI-stained cells were subjected to cell sorting (SH800 Series; SONY Imaging Products and Solutions Inc., Kanagawa, Japan). Cell-cycle analysis was performed with Cell Sorter Software version 2.1.2. (SONY Imaging Products and Solution Inc.).

For data set [9], the system named is HSC-2 cells (OSCC, tongue). Put plainly: MTT cytotoxicity assay, HSC-2. Particulars: for CC50: read-out: CC50 HSC-2; for relative cytotoxicity against HSC-2: from CC50 values 1.1, 2.8, 3.6 μM.
Procedure: as §2, §3, §4
In another data set the test system is HeLa cells. Further details: method as in El-Awady et al., 2011. Particulars: most resistant of five cancer cell lines; ref El-Awady et al., 2011; cited from earlier work.
A further data set concerns U251 cells. On the set-up: method as in El-Awady et al., 2011. Conditions: most sensitive of five cancer cell lines; ref El-Awady et al., 2011; cited from earlier work.
Data set [10] concerns gingival fibroblast (HGF), normal oral cells. The experiment in a line: MTT cytotoxicity assay, HGF. It counts as cell-based, human. Conditions: 48 h, average of three determinations.
Procedure: as §2, §3, §4
Data set [11] deals with periodontal ligament fibroblast (HPLF), normal oral cells. Put plainly: MTT cytotoxicity assay, HPLF. It counts as cell-based, human. Conditions: 48 h, average of three determinations.
Procedure: as §2, §3, §5
Data set [12] relates to pulp cells (HPC), normal oral cells. The experiment in a line: MTT cytotoxicity assay, HPC. It is filed as cell-based, human. Particulars: 48 h, average of three determinations.
Procedure: as §2, §3, §5
The test system of data set [13] is human normal oral cells (HGF, HPLF, HPC). Put plainly: MTT cytotoxicity, three normal oral cell types together (mean). Particulars: mean of HGF, read-out: CC50 normal oral cells mean (D). It is filed as cell-based.
From the text: as §1

Consider `COc1cc(C(=O)/C=C/c2cn(-c3ccc(S(N)(=O)=O)cc3)nc2-c2ccccc2)cc(OC)c1OC` [MS8, (E)-4-(4-(3-Oxo-3-(3,4,5-trimethoxyphenyl)prop-1-en-1-yl)-3-phenyl-1H-pyrazol-1-yl)benzenesulfonamide], for which the “TS (C/A) tumor-selectivity index” value in data set [1] was >169.0. The “PSE (C/A^2)x100 potency-selectivity expression” value in data set [1] is given as > 7141. The CC50 in data set [1] (Homo sapiens, Ca9-22) was 2.4 µM; in [2] (Homo sapiens, HSC-3), 4 µM; in [3] (Homo sapiens, HSC-4, 48 h) it was 3.5 µM; in data set [7] (Homo sapiens), 3.3 µM; in data set [9] (Homo sapiens, HSC-2, 48 h), 3.6 µM. In addition, the “increase of cytotoxicity against HSC-3 compared to MS4” value in data set [2] is given as 1.5–2 times. For the same compound, the CC50 at 48 h in data set [4] was > 400 µM; in data set [5] it was 340 µM; in [6], > 400 µM; in data set [8], > 380 µM. The “type of growth inhibition on the OSCC cell lines” value (from here on “type of growth inhibition”) in data set [7] is on record as “cytotoxic effects; also recorded: cytotoxic growth inhibition”. Further, in [7], the “TS (D/B) tumor-selectivity index” value is >113.5. Further, the “PSE (D/B^2)x100 potency-selectivity expression” value in [7] was > 3389. Further, the “effect on cell cycle distribution” value is “increased the cell population in the S and G2/M phases” in the data set with HSC-2 cells; “induced G2+M arrest” in the data set with HSC-2 cells (listed as 8). In the data set on HSC-2 cells (7.2 μM), this compound showed a subG1 cell population of 1.3%. In addition, the “share of S-phase cells” value in the data set on HSC-2 cells (concentration not given) was 21.2%. Further, the “share of G2+M phase cells” value in the data set with HSC-2 cells (concentration not given) is listed as 35.4%.

Consider `Cc1ccc(-c2cc(C(F)(F)F)nn2-c2ccc(S(N)(=O)=O)cc2)cc1` [celecoxib], for which the IC50 with HeLa cells is 37.2 µM; with U251 cells, 11.7 µM.

Turning to `NS(=O)(=O)c1ccc(-n2cc(/C=C/C(=O)c3ccccc3)c(-c3ccccc3)n2)cc1` [MS4, (E)-4-(4-(3-Oxo-3-phenylprop-1-en-1-yl)-3-phenyl-1H-pyrazol-1 yl) benzenesulfonamide], the “TS (C/A) tumor-selectivity index” value in data set [1] came to 71.2. Further, in [1], the “PSE (C/A^2)x100 potency-selectivity expression” value is reported as > 1444. In addition, the CC50 in data set [1] is 4.9 µM; in data set [2], 5.2 µM; in data set [3] (48 h) it was 3.5 µM; in data set [10], 351 µM; in data set [11], > 400 µM; in [12] it was > 400 µM. For the same compound, the CC50 is 3.7 µM in data set [7]; > 384 µM in data set [13]; 1.1 µM in data set [9] (OSCC, 48 h, MTT, average of three determinations). Moreover, the “type of growth inhibition” value in data set [7] is on record as “cytostatic effects; also recorded: cytostatic growth inhibition”. Also, in data set [7], the “TS (D/B) tumor-selectivity index” value is recorded as >103.7. The “PSE (D/B^2)x100 potency-selectivity expression” value in [7] is > 2800. Also, the “effect on cell cycle distribution” value with HSC-2 cells was “increased the cell population in the S and G2/M phases; also recorded: only slightly induced such changes in cell cycle distribution; also recorded: induced G2+M arrest”. Further, in the data set with HSC-2 cells (2.2 μM), the subG1 cell population is 2.0%. The “relative cytotoxicity against HSC-2” value in data set [9] turned out to be 3.3 fold.

Turning to `COc1cc(OC)c(C(=O)/C=C/c2cn(-c3ccc(S(N)(=O)=O)cc3)nc2-c2ccccc2)cc1OC` [MS7, (E)-4-(4-(3-Oxo-3-(2,4,5-trimethoxyphenyl)prop-1-en-1-yl)-3-phenyl-1H-pyrazol-1-yl)benzenesulfonamide], the “TS (C/A) tumor-selectivity index” value in data set [1] is >247.4. Moreover, the CC50 in data set [1] (Homo sapiens, Ca9-22) turned out to be 1.6 µM; in data set [2] (Homo sapiens, HSC-3), 3.3 µM; in data set [3] (Homo sapiens, HSC-4, 48 h), 3 µM; in data set [7] (Homo sapiens) it was 2.7 µM; in data set [9] (Homo sapiens, HSC-2, 48 h) it was 2.8 µM. Also, in data set [1] (relative to reference compound 5-FU), the “times more cytotoxic towards Ca9-22 than 5-FU” value was 20.6 times. Besides, the “increase of cytotoxicity against HSC-3 compared to MS4” value in [2] was 1.5–2 times. The cytotoxic concentration (CC50) at 48 h in [4], in data set [5], in [6] and in data set [8] was > 400 µM each time. Besides, the “type of growth inhibition” value in data set [7] was “cytotoxic effects; also recorded: cytotoxic growth inhibition”. The “TS (D/B) tumor-selectivity index” value in data set [7] is on record as >148.7. Further, the “PSE (D/B^2)x100 potency-selectivity expression” value in data set [7] is reported as > 5531. For the same compound, the “effect on cell cycle distribution” value in the data set on HSC-2 cells was “increased the cell population in the S and G2/M phases”; with HSC-2 cells (listed as 7), “induced G2+M arrest”. In addition, the subG1 cell population in the data set on HSC-2 cells (5.6 μM) came out at 1.0%; in the data set with HSC-2 cells (11.2 μM), 1.3%. Also, the “share of S-phase cells” value with HSC-2 cells (concentration not given) was found to be 20.6%. For the same compound, the “share of G2+M phase cells” value in the data set with HSC-2 cells (concentration not given) was determined as 35.0%. This compound returned a G1 phase cells in the data set with HSC-2 cells (control 63.2%, concentration not given) of 44.5%. Further, in data set [9], the “relative cytotoxicity against HSC-2” value was 1.3 fold.

The CC50 is the concentration at which the toxic effect on the cells reaches its halfway point. What is called IC50 is the midpoint of a concentration-inhibition curve.

These data come from publication PMC12604929, “Tumor-specific cytotoxicity of pyrazole-based chalcone derivatives in human oral squamous cell carcinoma cell lines” (Turkish Journal of Biology, 2025).
